From article PMC8617031, “Development of a BCL-xL and BCL-2 dual degrader with improved anti-leukemic activity,” (Nature Communications, 2021)
Values joined by “and” are separate entries in the source; they are usually repeats but may differ in a detail not shown here. Identical values can stand only once.

Tested on: Flag-BCL-xL (WT and lysine mutants)
Experiment: Degradation of Flag-BCL-xL WT and lysine mutants in transfected 293T cells
Type: cell-based, human
Settings: DMSO = 100
Procedure: Cells were collected, washed once with ice-cold phosphate-buffered saline, pH 7.2 (PBS, cat. no. 20012027; Thermo Fisher Scientific) and lysed in RIPA lysis buffer (Cat. No. BP-115DG, Boston Bio Products, Ashland, MA, USA) supplemented with protease and phosphatase inhibitor cocktails (Cat. No. PPC1010, Sigma-Aldrich, St. Louis, MO, USA) through sonication. The samples were centrifuged at 14,000 r.p.m. for 5 min and the supernatants were transferred into a new tube. The protein concentration in the supernatants was determined using the Pierce BCA protein Assay kit (cat. no. 23225, Thermo Fisher Scientific). The protein concentration was normalized, and the samples were reduced in 4× Laemmli’s SDS-sample buffer (cat. no. BP-110R, Boston Bio Products) and denatured at 95 °C for 5 min. An equal amount of protein samples (20–40 μg per lane) were resolved using precast 4–20% Tris-glycine gels (Mini-PROTEAN TGX, cat. no. 456–1094, Bio-Rad), and resolved proteins were transferred onto 0.2-µm pore size polyvinylidene difluoride (PVDF) blotting membranes (cat. no. LC2002, Thermo Fisher Scientific) using mini trans-blot electrophoretic transfer cell (Bio-Rad). The membranes were blocked with non-fat dry milk (5% wt/vol) in 1× Tris-buffered saline-Tween-20 (TBST, cat. no. J77500, Affymetrix) for 1 h at room temperature, and were subsequently probed with primary antibodies at a predetermined optimal concentration in non-fat dry milk (5% wt/vol in TBST) overnight at 4 °C. The membranes were washed three times (5 min each) in TBST and then incubated with horse radish peroxidase (HRP)-conjugated secondary antibodies for 1 h at room temperature. Following sufficient washing with TBST, the membranes were exposed with chemiluminescent HRP substrate (cat. no. WBKLS0500, MilliporeSigma), and the signal was detected using the ChemiDoc MP Imaging System (Bio-Rad) and quantified using the ImageJ (v1.53a) software from NIH.
Plasmids were purified on miniprep columns according to the manufacturer’s protocol (Cat. No. 27106 Qiagen, Germantown, MD, USA). The construction of Flag-BCL-xL (pDL2009) and Flag-BCL-xL-K-ko (pDL2129) were described previously. Flag-BCL-2 was a gift from Clark Distelhorst (Addgene plasmid # 18003, Watertown, MA, USA). Plasmids Flag-BCL-xL-K16-only, Flag-BCL-xL-K20-only, Flag-BCL-xL-K157-only, Flag-BCL-xL-K-ko-R34K, Flag-BCL-xL-K-ko-R102K, Flag-BCL-xL-K-ko-R132K, Flag-BCL-xL-K-ko-G186K, Flag-BCL-2-K17R, Flag-BCL-2-K22R, and Flag-BCL-2-K17/22R were constructed by using Q5® Site-Directed Mutagenesis Kit (Cat. No. E0554S, NEB, Ipswich, MA, USA) and the following primer sets. Flag-BCL-xL-K-ko (pDL2129) or Flag-BCL-2 was used as the template. Flag-BCL-xL-K16-only: forward (5′-[…]a[…]-3′) and reverse (5′-[…]-3′); Flag-BCL-xL-K20-only: forward (5′-[…]a[…]-3′) and reverse (5′-[…]-3′); Flag-BCL-xL-K157-only: forward (5′-[…]a[…]-3′) and reverse (5′-[…]-3′); Flag-BCL-xL-R34K: forward (5′-[…]a[…]-3′) and reverse (5′-[…]-3′); Flag-BCL-xL-R102K: forward (5′-[…]aa[…]-3′) and reverse (5′-[…]-3′); Flag-BCL-xL-R132K: forward (5′-[…]aa[…]-3′) and reverse (5′-[…]-3′); Flag-BCL-xL-G186K: forward (5′-[…]aa[…]-3′) and reverse (5′-[…]-3′); Flag-BCL-2-K17R: forward (5′-[…]g[…]-3′) and reverse (5′-[…]-3′); Flag-BCL-2-K22R: forward (5′-[…]g[…]-3′) and reverse (5′-[…]-3′); Flag-BCL-2-K17/22R: forward (5′-cattatag[…]-3′) and reverse (5′-gatgtacc[…]-3′). DNA sequences in all these plasmids were authenticated by automatic sequencing. […] The cells were harvested using RIPA lysis buffer containing protease and phosphatase inhibitor as mentioned above. The primers used in this study are also listed in Supplementary Table 1.

SMILES | relative Flag-BCL-xL protein content (K16-only mutant, 753b-treated 293T, Fig. 5a) | relative Flag-BCL-xL protein content (K20-only mutant, 753b-treated 293T, Fig. 5a) | relative Flag-BCL-xL protein content (WT Flag-BCL-xL, 753b-treated 293T, Fig. 5a, 3 replicates) | relative Flag-BCL-xL protein content (K157-only mutant, DT2216-treated 293T, Fig. 1f) | relative Flag-BCL-xL protein content (K-ko mutant, DT2216-treated 293T, Fig. 1f) | relative Flag-BCL-xL protein content (K-ko-G186K mutant, DT2216-treated 293T, Fig. 1f) | relative Flag-BCL-xL protein content (K-ko-R34K mutant, DT2216-treated 293T, Fig. 1f) | relative Flag-BCL-xL protein content (K-ko-R102K mutant, DT2216-treated 293T, Fig. 1f) | relative Flag-BCL-xL protein content (K-ko-R132K mutant, DT2216-treated 293T, Fig. 1f) | relative Flag-BCL-xL protein content (WT Flag-BCL-xL, DT2216-treated 293T, Fig. 1f, 3 replicates)
Cc1ncsc1-c1ccc([C@H](C)NC(=O)[C@@H]2C[C@@H](O)CN2C(=O)[C@@H](NC(=O)CCCCCCC(=O)N2CCN(C[C@]3(C)CCC(c4ccc(Cl)cc4)=C(CN4CCN(c5ccc(C(=O)NS(=O)(=O)c6ccc(N[C@H](CCN7CCOCC7)CSc7ccccc7)c(S(=O)(=O)C(F)(F)F)c6)cc5)CC4)C3)CC2)C(C)(C)C)cc1 [753b] | 86 and 85 and 66 | 29 and 42 and 46 | 34 and 30 and 42 |  |  |  |  |  |  | 
Cc1ncsc1-c1ccc([C@H](C)NC(=O)[C@@H]2C[C@@H](O)CN2C(=O)[C@@H](NC(=O)CCCCCC(=O)N2CCN(CC[C@H](CSc3ccccc3)Nc3ccc(S(=O)(=O)NC(=O)c4ccc(N5CCN(CC6=C(c7ccc(Cl)cc7)CCC(C)(C)C6)CC5)cc4)cc3S(=O)(=O)C(F)(F)F)CC2)C(C)(C)C)cc1 [DT2216] |  |  |  | 91 and 97 and 105 | 95 and 102 and 90 | 81 and 88 and 95 | 50 and 41 and 44 | 64 and 57 and 51 | 55 and 50 and 58 | 7 and 33 and 22
